{"source": "paper PMC10194981", "about": "“Chemosensory protein regulates the behavioural response of Frankliniella intonsa and Frankliniella occidentalis to tomato zonate spot virus–Infected pepper (Capsicum annuum)” (PLOS Pathogens, 2023)", "key": {"FintCSP1-Lys26Ala": {"biological_target": "FintCSP1-Lys26Ala (Frankliniella intonsa, UniProt A0A891LVF4, K26A)", "sequence (A0A891LVF4 entry or part of it K26A)": "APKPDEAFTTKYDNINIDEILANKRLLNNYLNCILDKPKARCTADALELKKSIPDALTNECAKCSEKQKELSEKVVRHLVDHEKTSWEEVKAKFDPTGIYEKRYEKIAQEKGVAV", "assay": "Fluorescence (1-NPN) binding and competitive binding assay, FintCSP1 mutant", "protocol": "(§1) The binding affinity of FintCSP1 and FoccCSP to the fluorescent probe N-phenyl-1-naphthylamine (1-NPN) was tested using a Spectramax M2 fluorescence spectrometer (Molecular Devices, USA) as reported previously. […] The 1-NPN/FintCSP1 or 1-NPN/FoccCSP mixture was excited at 280 nm, and the emission spectra were recorded at 415 nm. The binding constants (Kd) of FintCSP1 or FoccCSP to 1-NPN were calculated by Scatchard analysis using Prism 5 software (GraphPad, La Jolla, CA, USA). Assuming a protein activity of 100% and that the volatile compound binds to the protein in a 1:1 ratio at saturation, the dissociation constants (Ki) of FintCSP1 or FoccCSP for each ligand were calculated according to the IC50 (the concentration when the ligand replaces 50% of the probe) value of the volatile compounds. The Ki values were calculated according to the following equation: Ki = [IC50]/(1 + [1-NPN]/K1-NPN), where [1-NPN] is the free concentration of 1-NPN, and K1-NPN is the Kd of the 1-NPN/FintCSP1 or 1-NPN/FoccCSP.\n(§2) To verify the key amino acids of FintCSP1 and FoccCSP that bind to cis-3-hexenal, six amino acid residues of FintCSP1 were mutated (Lys26Ala, Phe27Ala, Thr28Ala, Glu67Ala, Ser84Ala, and the negative control residue Val132Ala) and nine amino acid residues of FoccCSP were mutated (Lys26Ala, Phe27Ala, Thr28Ala, Thr29Ala, Tyr31Ala, Asp64Ala, Glu67Ala, Gln87Ala, and the negative control residue Val132Ala) with the Fast Mutagenesis System Kit (Transgen Biotech, Beijing, China) using the pET-30a/FintCSP1 and pET-30a/FoccCSP plasmid DNA as template, respectively. Specific primers were designed using Primer Premier 5.0 according to the instructions of the Fast Mutagenesis System Kit (S1 Table). After validation by sequencing, each recombinant variant protein was produced and purified as described above, and their binding affinity to cis-3-hexenal was measured as described above."}, "FintCSP1-Glu67Ala": {"biological_target": "FintCSP1-Glu67Ala (Frankliniella intonsa, UniProt A0A891LVF4, E67A)", "sequence (A0A891LVF4 entry or part of it E67A)": "as the sequence (A0A891LVF4 entry or part of it K26A) above, with A7K, E48A counted along it", "assay": "Fluorescence (1-NPN) binding and competitive binding assay, FintCSP1 mutant", "protocol": "as §1, §2"}, "FintCSP1-Phe27Ala": {"biological_target": "FintCSP1-Phe27Ala (Frankliniella intonsa, UniProt A0A891LVF4, F27A)", "sequence (A0A891LVF4 entry or part of it F27A)": "as the sequence (A0A891LVF4 entry or part of it K26A) above, with A7K, F8A counted along it", "assay": "Fluorescence (1-NPN) binding and competitive binding assay, FintCSP1 mutant", "protocol": "as §1, §2"}, "FintCSP1-Thr28Ala": {"biological_target": "FintCSP1-Thr28Ala (Frankliniella intonsa, UniProt A0A891LVF4, T28A)", "sequence (A0A891LVF4 entry or part of it T28A)": "as the sequence (A0A891LVF4 entry or part of it K26A) above, with A7K, T9A counted along it", "assay": "Fluorescence (1-NPN) binding and competitive binding assay, FintCSP1 mutant", "protocol": "as §1, §2"}, "[1]": {"biological_target": "recombinant wild-type FoccCSP (Frankliniella occidentalis, UniProt G4Y3X1)", "sequence (G4Y3X1 entry or part of it)": "as the sequence (A0A891LVF4 entry or part of it K26A) above, with D5E, A7K, I15V, A44N, A62M, V80A, D81E, H82K, T85E, Q109K counted along it", "assay": "Fluorescence (1-NPN) binding and competitive binding assay, wild-type FoccCSP", "conditions": "wild-type FoccCSP, displacement of 1-NPN, both 2 μM", "protocol": "(§3) FintCSP1 and FoccCSP DNA were released from pEASY-T1/FintCSP1 and pEASY-T1/FoccCSP, respectively, by restriction digestion with BamHI and XhoI and cloned into the pET-30a vector (Invitrogen). The resulting construct was transformed into Transetta (DE3) Escherichia coli competent cells (Transgen). The production of recombinant FintCSP1 and FoccCSP was induced by addition of isopropyl-β-D-1-thiogalactopyranoside (IPTG, 0.2 mM) at 15°C and purified by Ni ion affinity chromatography (Sangon Biotech, Shanghai, China). The target protein was verified by 15% SDS-PAGE, and its concentration was determined with a BCA protein assay kit (Thermo Scientific, Rockford, IL, USA). The recombinant purified protein was stored at −20°C until use.\nThe binding affinity of FintCSP1 and FoccCSP to the fluorescent probe N-phenyl-1-naphthylamine (1-NPN) was tested using a Spectramax M2 fluorescence spectrometer (Molecular Devices, USA) as reported previously. Volatile compounds and 1-NPN were first dissolved to a concentration of 1 mM in HPLC-grade methanol and dissolved to their indicated final concentration (2–20 μM) to titrate 2 μM protein solutions resuspended in 50 mM Tris-HCl (pH 7.4). The 1-NPN/FintCSP1 or 1-NPN/FoccCSP mixture was excited at 280 nm, and the emission spectra were recorded at 415 nm. The binding constants (Kd) of FintCSP1 or FoccCSP to 1-NPN were calculated by Scatchard analysis using Prism 5 software (GraphPad, La Jolla, CA, USA). Assuming a protein activity of 100% and that the volatile compound binds to the protein in a 1:1 ratio at saturation, the dissociation constants (Ki) of FintCSP1 or FoccCSP for each ligand were calculated according to the IC50 (the concentration when the ligand replaces 50% of the probe) value of the volatile compounds. The Ki values were calculated according to the following equation: Ki = [IC50]/(1 + [1-NPN]/K1-NPN), where [1-NPN] is the free concentration of 1-NPN, and K1-NPN is the Kd of the 1-NPN/FintCSP1 or 1-NPN/FoccCSP."}, "[2]": {"system": "OBP5 from Apolygus lucorum", "parameters": "method as in PMID 23665333", "conditions": "cited from earlier work"}, "M. sexta larvae": {"system": "M. sexta larvae", "parameters": "method as in PMID 25261073", "conditions": "cited from earlier work"}, "[3]": {"biological_target": "recombinant wild-type FintCSP1 (Frankliniella intonsa, UniProt A0A891LVF4)", "sequence (A0A891LVF4 entry or part of it)": "as the sequence (A0A891LVF4 entry or part of it K26A) above, with A7K counted along it", "assay": "Fluorescence (1-NPN) binding and competitive binding assay, wild-type FintCSP1", "conditions": "wild-type FintCSP1", "protocol": "as §3, §1"}}}
{"smiles": "CC/C=C\\CC=O", "note": "[cis-3-hexenal]", "values": [{"measurement": "IC50", "setting": "FintCSP1-Lys26Ala", "value": "> 100", "unit": "µM"}, {"measurement": "affinity for cis-3-hexenal (in words)", "setting": "FintCSP1-Lys26Ala; FintCSP1-Lys26Ala, competitive fluorescent assay", "value": "no affinity"}, {"measurement": "IC50", "setting": "FintCSP1-Glu67Ala", "value": "> 100", "unit": "µM"}, {"measurement": "affinity for cis-3-hexenal (in words)", "setting": "FintCSP1-Glu67Ala; FintCSP1-Glu67Ala, competitive fluorescent assay", "value": "no affinity"}, {"measurement": "IC50", "setting": "FintCSP1-Phe27Ala", "value": "53.5 ± 3.07", "unit": "µM"}, {"measurement": "Ki", "setting": "FintCSP1-Phe27Ala", "value": "41.1 ± 2.36", "unit": "µM"}, {"measurement": "affinity for cis-3-hexenal (in words)", "setting": "FintCSP1-Phe27Ala; FintCSP1-Phe27Ala compared with wild-type FintCSP1", "value": "weaker affinity"}, {"measurement": "IC50", "setting": "FintCSP1-Thr28Ala", "value": "> 100", "unit": "µM"}, {"measurement": "affinity for cis-3-hexenal (in words)", "setting": "FintCSP1-Thr28Ala; FintCSP1-Thr28Ala, competitive fluorescent assay", "value": "no affinity"}, {"measurement": "IC50", "setting": "[1]; 50 mM Tris-HCl pH 7.4", "value": "28.8 ± 0.45", "unit": "µM"}, {"measurement": "Ki", "setting": "[1]; pH 7.4", "value": "23.4 ± 0.36", "unit": "µM"}, {"measurement": "binding to OBP5 (in words)", "setting": "[2]", "value": "strongly binds"}, {"measurement": "effect on M. sexta larvae (in words)", "setting": "M. sexta larvae", "value": "feeding stimulant"}, {"measurement": "binding affinity to FintCSP1 (in words)", "setting": "[3]; competitive fluorescence binding assay, classes of Ki", "value": "moderate binding affinity"}, {"measurement": "IC50", "setting": "[3]; displacement of 1-NPN, protein and 1-NPN both 2 μM, 50 mM Tris-HCl pH 7.4, read-out: IC50", "value": "36.2 ± 1", "unit": "µM"}, {"measurement": "Ki", "setting": "[3]; displacement of 1-NPN, protein and 1-NPN both 2 μM, pH 7.4, calculated from IC50, read-out: Ki", "value": "28.7 ± 0.79", "unit": "µM"}]}
